Where no end group is shown, it is not given here.
Assays:
Type in all cases: cell-based
[1] = system: cultured rabbit trigeminal nerve cells; assay: Promoting effect on neuritogenesis in cultured rabbit trigeminal nerve cells (1) (Test Example 1); conditions: final concentration 1 μM, cultured for 48 hours; control group 24.1%; p<0.001 vs non-addition group
From the text: Japanese white rabbits (2 to 3 days old) purchased from Kitayama Labes Co., Ltd. were used.
Rabbit trigeminal nerve cells were isolated according to a method reported by Chan et al. (Kwan Y. Chan and Richard H. Haschke, Exp. Eye Res. 41: 687-699, 1985). The rabbit was subjected to cardiac perfusion with physiological saline under ether anesthesia. A trigeminal ganglion was excised from the rabbit, and then dispersed in a nerve dispersion liquid (Sumitomo Bakelite Co., Ltd.) to prepare trigeminal nerve cells. The trigeminal nerve cells were cultured in Neurobasal medium (Invitrogen Corp) supplemented with B27 Supplement (Invitrogen Corp; final concentration: 2% v/v) and L-glutamine (Invitrogen Corp; final concentration: 1 mM) under 5% CO2 and 95% air at a humidity of 100% and a temperature of 37° C. […]
For evaluating neuritogenesis in the cultured rabbit trigeminal nerve cells, the lengths of the longest neurite and the major axis of the cell body in the stained cell images scanned into the computer were measured using image analysis software (Image-Pro Plus ver. 4.0, Planetron, Inc.) The cells in 3 wells for each group were measured. […] The proportion (%) of the neurite forming cells in the total cell number was calculated (Otori, Y., Wei, J. Y., Barnstable, C. J., Invest. Opthalmol. Vis. Sic., (1998)39, 972-981).

[2] = system: excised rabbit lacrimal gland; assay: Promoting effect on protein secretion from an excised lacrimal gland (1) (Test Example 3)
Procedure: A lacrimal gland was excised from a rabbit and then treated with PACAP27 or peptide 17. Pharmacological effects of PACAP27 and peptide 17 on an increase in the protein secretion amount were examined.
(a) Purified water was added to sodium chloride (137.92 g), potassium chloride (7.01 g), calcium chloride dihydrate (3.53 g) and magnesium chloride hexahydrate (1.2 g) so that the total volume was 1000 mL (solution 1). Purified water was added to potassium dihydrogen phosphate (8.17 g) so that the total volume was 500 mL (solution 2). The solution 1 (50 mL) and the solution 2 (10 mL) were added to 900 mL of purified water, and in the resulting solution were dissolved glucose (2.07 g) and sodium hydrogen carbonate (2.1 g). The total volume of the resulting solution was adjusted to 1000 mL (pH about 7.4), which was used as a culture solution. A mixed gas of 95% oxygen and 5% carbon dioxide was allowed to pass through the culture solution.
(b) PACAP27 or peptide 17 was dissolved in the culture solution at a concentration of 10^−7 M, which was used as a test substance solution. Carbachol (Nacalai Tesque, Inc.), which has muscarinic agonist activity, was dissolved in the culture solution at a concentration of 10^−4 M, which was used as a control of the drugs (the carbachol-addition group). […]
(a) The section sample in a stationary state was incubated at 37° C. for 20 minutes in 0.5 mL of a fresh culture solution. […] The amount of protein in the culture solution was determined by using a protein staining reagent (DC Protein Assay Reagent, Bio Rad), and was converted into the protein secretion amount per 1 mg of the wet sample. […]
(b) The culture solution of the section sample after incubation obtained in (a) was replaced by 0.5 mL of the test substance solution. […] The protein amount in the collected solution was determined by using the protein staining reagent. In the same way, as a control group, the section sample was incubated in the culture solution which was replaced by a fresh culture solution and the protein amount in the culture solution was determined.

[3] = system: excised rabbit lacrimal gland; assay: Promoting effect on protein secretion from an excised lacrimal gland (2) (Test Example 5); conditions: carbachol 10^−4 M, incubated 60 minutes; p<0.05
Procedure: A lacrimal gland was excised from a rabbit and incubated in a solution containing PACAP27 or peptide 24, and changes in the amount of secreted protein were examined as lacrimal gland stimulating activity.
Japanese white rabbits with a body weight of 1.5 to 2.0 kg purchased from Fukusaki Rabbit warren were used. The animals were each put in separate cages placed in a room wherein a temperature of 23±3° C. and a humidity of 55±10% were kept and a light was on for 12 hours per day (lighting at 8:00 and lights-out at 20:00), and raised after arrival until the final day of the test. The animals were given 100 g of solid feed (Labo R Stock, Nosan Corporation) per day, and could freely have tap water.
PACAP27 and peptide 24 were used as test substances. Test substance solutions were prepared as follows. […]
The section sample in a stationary state was incubated in 0.5 mL of a fresh incubation solution at 37° C. for 20 minutes under a mixed gas atmosphere of 95% oxygen and 5% carbon dioxide. After completion of the incubation, the incubation solution was collected, and the protein amount in the solution was determined by using a protein staining reagent (DC Protein Assay Reagent, Bio Rad). […] The incubation solution was collected, and the protein amount in the incubation solution was determined. […]

Row | Compound | proportion (%) of the neurite forming cells in the total cell number [1] [%] | duration of the action of the drug compared with the carbachol-addition group ([2]; 10^−7 M vs carbachol 10^−4 M) | protein secretion rate of excised lacrimal gland ([2]; 10^−7 M, at 20 minutes after initiation of the treatment and thereafter, p<0.05 vs control) | protein secretion rate of excised lacrimal gland ([2]; carbachol 10^−4 M (control of the drugs)) | protein secretion rate of excised lacrimal gland compared with control group [3]
1 | His-Ser-Asp-Ala-Ile-Phe-Thr-Asp-Ser-Tyr-Ser-Arg-Tyr-Arg-Arg-Gln-Leu-Ala-Val-Arg-Arg-Tyr-Leu-Ala-Ala-Val-Leu-Gly-Arg-Arg-OH (HSDAIFTDSYSRYRRQLAVRRYLAAVLGRR-OH) [Peptide 17] | 54.1 | lasted longer | significantly increased | – | –
2 | C[N+](C)(C)CCOC(N)=O [carbachol, Carbachol, reference compound] | – | – | – | significant increase | significant increase
